Results reported in patent US9120798B2, “Amino-heteroaryl 7-hydroxy-spiropiperidine indolinyl antagonists of P2Y1 receptor” (priority 2012, dated 2015).
Like-named read-outs stand apart in the source and are kept apart here.

Tests used:
[1] = target: cloned human P2Y1 receptors (Homo sapiens (Human), UniProt P47900); experiment: Binding Assay B: Scintillation Proximity Assay (SPA) for P2Y1 binding
Protocol: Binding Assay B—Scintillation Proximity Assay (SPA) for P2Y1 Binding
A SPA membrane binding assay was used to identify inhibitors of [^33P] […] Binding reactions were performed in 384-well OptiPlates (PerkinElmer Life Sciences, Cat #6007299) in a volume of 50 μL containing ˜15 fmol of P2Y1 receptor (1.7 μg of total protein), 0.3 nM [^33P] […] Reactions were allowed to proceed to completion at room temperature for 1 hour followed by centrifugation of the plate for 5 min. About 40 μL of the aqueous solution was aspirated. Plates were sealed and the [^33P]

[2] = test system: human platelet rich plasma (PRP); experiment: ADP induced platelet aggregation assay; type: cell-based; settings: 5 min, read-out: PA IC50 (μM) @ 10 μM ADP
Protocol: ADP Induced Platelet Aggregation Assay
The ability of P2Y1 antagonists covered in the present invention to inhibit platelet aggregation induced by 10 μM ADP was tested using human platelet rich plasma (PRP) as described in Platelet Protocols: Research and Clinical Laboratory Procedures (White, M. M. et al., Academic Press (1999)). Human blood was collected in 30 μM (final concentration in blood) argatroban (GSK) as the anticoagulant at a ratio of 1 ml per 9 ml of blood. The PRP was isolated by centrifugation at 170 g for 12 minutes. The platelet poor plasma (PPP) was used as the blank for optical aggregometry. Compounds of the present invention in DMSO solution was preincubated with 250 μl PRP at 37° C. for 1 minute with stirring speed of 1000 rpm. Aggregation was initiated by addition of 2.5 μl of 1 mM ADP (Chrono-log, Havertown, Pa.) for a final ADP concentration of 10 uM. Platelet aggregation was monitored using Optical Aggregometer (Chrono-log, Havertown, Pa.) and the area under the curve (AUC) at 5 minute was measured. IC50 was calculated using vehicle control as 0% inhibition.
The platelet aggregation assay measures the in vitro antiplatelet activity of a compound in platelet rich plasma. The assay is sensitive to plasma protein binding, and is believed to be a better predictor of actual in vivo activity.

[3] = SPA, 0.3 nM [33P] 2MeS-ADP, Cheng-Prusoff, read-out: P2Y1 Ki (nM) using binding assay B

cloned human P2Y1 receptors, sequence (P47900 whole entry): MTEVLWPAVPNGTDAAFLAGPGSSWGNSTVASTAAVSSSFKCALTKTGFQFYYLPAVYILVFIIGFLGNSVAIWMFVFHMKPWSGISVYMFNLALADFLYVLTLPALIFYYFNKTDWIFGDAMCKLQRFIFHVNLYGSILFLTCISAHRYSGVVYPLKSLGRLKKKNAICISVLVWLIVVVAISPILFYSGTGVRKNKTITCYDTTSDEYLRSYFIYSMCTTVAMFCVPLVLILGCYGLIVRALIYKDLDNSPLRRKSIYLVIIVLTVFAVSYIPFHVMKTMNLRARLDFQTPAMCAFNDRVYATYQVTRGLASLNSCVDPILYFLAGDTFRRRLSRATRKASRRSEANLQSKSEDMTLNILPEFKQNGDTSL

SMILES	Ki [1]	IC50 [2]	Ki [1, 3]
CC(C)(C)CN1CCC2(CC1)CN(c1ccccc1Nc1nnc(-c3cccc(C(F)(F)F)c3)s1)c1c(O)ccc(Cl)c12 [Example 27, 4-chloro-1′-neopentyl-1-(2-((5-(3-(trifluoromethyl)phenyl)-1,3,4-thiadiazol-2-yl)amino)-phenyl)spiro[indoline-3,4′-piperidin]-7-ol]	24 nM	3.2 µM	
CC(C)(C)CN1CCC2(CC1)CN(c1ccccc1Nc1nnc(-c3ccccn3)s1)c1c(O)ccc(Cl)c12 [Example 28, 4-chloro-1′-neopentyl-1-(2-((5-(pyridin-2-yl)-1,3,4-thiadiazol-2-yl)amino)phenyl)-spiro[indoline-3,4′-piperidin]-7-ol]	6.8 nM	5.8 µM	
CC(C)(C)CN1CCC2(CC1)CN(c1ccccc1Nc1nnc(-c3cccc(F)c3)s1)c1c(O)ccc(Cl)c12 [Example 29, 4-chloro-1-(2-((5-(3-fluoro-phenyl)-1,3,4-thiadiazol-2-yl)amino)phenyl)-1′-neopentylspiro[indoline-3,4′-piperidin]-7-ol]	23 nM	2.4 µM	
CC(C)(C)CN1CCC2(CC1)CN(c1ccccc1Nc1nnc(-c3ccc(OC(F)(F)F)cc3)s1)c1c(O)ccc(F)c12 [Example 30, 4-fluoro-1′-neopentyl-1-(2-((5-(4-(trifluoromethoxy)-phenyl)-1,3,4-thiadiazol-2-yl)amino)phenyl)spiro[indoline-3,4′-piperidin]-7-ol]	5 nM	2 µM	
CC(C)(C)CN1CCC2(CC1)CN(c1ccccc1Nc1nnc(-c3ccc(Cl)cc3)s1)c1c(O)ccc(F)c12 [Example 31, 1-(2-((5-(4-chlorophenyl)-1,3,4-thiadiazol-2-yl)amino)phenyl)-4-fluoro-1′-neopentylspiro-[indoline-3,4′-piperidin]-7-ol]	6 nM	4.2 µM	
CC(C)(C)CN1CCC2(CC1)CN(c1ccccc1Nc1nnc(-c3ccc(OC(F)(F)F)cc3)s1)c1c(O)c(F)cc(Cl)c12 [Example 32, 4-chloro-6-fluoro-1′-neopentyl-1-(2-((5-(4-(trifluoromethoxy)-phenyl)-1,3,4-thiadiazol-2-yl)amino)phenyl)spiro[indoline-3,4′-piperidin]-7-ol]	69 nM	15.6 µM	
CC(C)(C)CN1CCC2(CC1)CN(c1ccccc1Nc1nnc(-c3ccc(OC(F)(F)F)cc3)s1)c1c(O)cc(F)c(Cl)c12 [Example 33, 4-chloro-5-fluoro-1′-neopentyl-1-(2-((5-(4-(trifluoromethoxy)-phenyl)-1,3,4-thiadiazol-2-yl)amino)phenyl)spiro[indoline-3,4′-piperidin]-7-ol]	23 nM	9.2 µM	
CC(C)(C)CN1CCC2(CC1)CN(c1ccccc1Nc1nnc(-c3ccc(OC(F)(F)F)cc3)s1)c1c(O)cc(F)c(F)c12 [Example 34, 4,5-difluoro-1′-neopentyl-1-(2-((5-(4-(trifluoromethoxy)-phenyl)-1,3,4-thiadiazol-2-yl)amino)phenyl)spiro[indoline-3,4′-piperidin]-7-ol]	37 nM	9.9 µM	
CC(C)(C)CN1CCC2(CC1)CN(c1ccccc1Nc1nc(-c3ccccc3)ns1)c1c(O)ccc(Cl)c12 [Example 35, 4-Chloro-1′-neopentyl-1-(2-(3-phenyl-1,2,4-thiadiazol-5-ylamino)phenyl)spiro[indoline-3,4′-piperidin]-7-ol]		5.4 µM	6 nM
CC(C)(C)CN1CCC2(CC1)CN(c1ccccc1Nc1nc(C(C)(C)C)ns1)c1c(O)ccc(Cl)c12 [Example 36, 1-(2-(3-tert-Butyl-1,2,4-thiadiazol-5-ylamino)phenyl)-4-chloro-1′-neopentylspiro[indoline-3,4′-piperidin]-7-ol]	8 nM	2.1 µM	
CC(C)(C)CN1CCC2(CC1)CN(c1ccccc1Nc1cc(-c3ccc(C(F)(F)F)cc3)on1)c1c(O)ccc(Cl)c12 [Example 37, 4-Chloro-1′-neopentyl-1-(2-(5-(4-(trifluoromethyl)phenyl)isoxazol-3-ylamino)phenyl)spiro[indoline-3,4′-piperidin]-7-ol]	60 nM	9.9 µM	
CC(C)(C)CN1CCC2(CC1)CN(c1ccccc1Nc1cc(-c3ccccc3)on1)c1c(O)ccc(Cl)c12 [Example 38, 4-Chloro-1′-neopentyl-1-(2-(5-phenylisoxazol-3-ylamino)phenyl)spiro[indoline-3,4′-piperidin]-7-ol]		9 µM	66 nM
CC(C)(C)CN1CCC2(CC1)CN(c1ccccc1Nc1nc(C(C)(C)C)c(C#N)s1)c1c(O)ccc(Cl)c12 [Example 39, 4-tert-Butyl-2-(2-(4-chloro-7-hydroxy-1′-neopentylspiro[indoline-3,4′-piperidine]-1-yl)phenylamino)thiazole-5-carbonitrile]	9 nM	4.9 µM	
CCOC(=O)c1sc(Nc2ccccc2N2CC3(CCN(CC(C)(C)C)CC3)c3c(Cl)ccc(O)c32)nc1C(F)(F)F [Example 40, Ethyl 2-(2-(4-chloro-7-hydroxy-1′-neopentylspiro[indoline-3,4′-piperidine]-1-yl)phenylamino)-4-(trifluoromethyl)thiazole-5-carboxylate]	19 nM	1 µM	
CC(C)CN1CCc2nc(Nc3ccccc3N3CC4(CCN(CC(C)(C)C)CC4)c4c(Cl)ccc(O)c43)sc2C1 [Example 41, 4-Chloro-1-(2-(5-isobutyl-4,5,6,7-tetrahydrothiazolo[5,4-c]pyridin-2-ylamino)phenyl)-1′-neopentylspiro[indoline-3,4′-piperidin]-7-ol]	21 nM	20.3 µM	
CC(C)(C)CN1CCC2(CC1)CN(c1ccccc1Nc1ccc(C(F)(F)F)cn1)c1c(O)ccc(Cl)c12 [Example 42, 4-Chloro-1′-neopentyl-1-(2-(5-(trifluoromethyl)pyridin-2-ylamino)phenyl)spiro[indoline-3,4′-piperidin]-7-ol]	22 nM	22.8 µM	
COC(=O)c1ccc(O)c2c1C1(CCN(CC(C)(C)C)CC1)CN2c1ccccc1Nc1nnc(-c2ccc(C(F)(F)F)cc2)s1 [Example 43, Methyl 7-hydroxy-1′-neopentyl-1-(2-(5-(4-(trifluoromethyl)phenyl)-1,3,4-thiadiazol-2-ylamino)phenyl)spiro[indoline-3,4′-piperidine]-4-carboxylate]	8 nM	3.1 µM	
COC(=O)c1ccc(O)c2c1C1(CCN(CC(C)(C)C)CC1)CN2c1ccccc1Nc1nnc(-c2ccc(C(C)(C)C)cc2)s1 [Example 44, Methyl 1-(2-(5-(4-tert-butylphenyl)-1,3,4-thiadiazol-2-ylamino)phenyl)-7-hydroxy-1′-neopentylspiro[indoline-3,4′-piperidine]-4-carboxylate]		0.8 µM	8 nM
CC(C)(C)CN1CCC2(CC1)CN(c1ccccc1Nc1nnc(-c3ccc(C(F)(F)F)cc3)s1)c1c(O)ccc(C#N)c12 [Example 45, 7-Hydroxy-1′-neopentyl-1-(2-(5-(4-(trifluoromethyl)phenyl)-1,3,4-thiadiazol-2-ylamino)phenyl)spiro[indoline-3,4′-piperidine]-4-carbonitrile]	3 nM	3.5 µM	
CC(C)(C)CN1CCC2(CC1)CN(c1ccccc1Nc1nnc(-c3ccc(C(C)(C)C)cc3)s1)c1c(O)ccc(C#N)c12 [Example 46, 1-(2-(5-(4-tert-Butylphenyl)-1,3,4-thiadiazol-2-ylamino)phenyl)-7-hydroxy-1′-neopentylspiro[indoline-3,4′-piperidine]-4-carbonitrile]	10 nM	1.1 µM	
